Source: patent EP0840781B1, “METHODS AND DEVICES FOR THE REMOVAL OF PSORALENS FROM BLOOD PRODUCTS” (Cerus Corporation, priority 1995, dated 1996)

Experiments:
[1] = system: Duck Hepatitis B Virus (DHBV); assay: Inactivation of Duck Hepatitis B Virus in platelet concentrate, read out by PCR amplification; format: biochemical; settings: 5 J/cm^2 UVA
Experimental: This example describes the protocol for inactivation of Duck Hepatitis B Virus (DHBV), a model for Hepatitis B Virus, using compounds described herein.
DHBV in duck yolk was added to platelet concentrate (PC) to a final concentration of 2 x 10^7 particles per mL and mixed by gentle rocking for ≥15 min. Psoralens S-70, S-59 and AMT were added to 3 mL aliquots of PC in a Teflon™ mini-bag at concentrations of […]. Samples, including controls without added psoralen, were irradiated with 5 J/cm^2 UVA, with mixing at 1 J/cm^2 increments. After irradiation, leukocytes and platelets were separated from virus by centrifugation. The supernatant containing DHBV was digested overnight with 50 µg/mL proteinase K in a buffer containing 0.5% sodium dodecyl sulphate, 20 mM Tris buffer, pH 8.0, and 5 mM EDTA at 55°C. Samples were extracted with phenolchloroform and chloroform, followed by ethanol precipitation. Purified DNA was then used in PCR amplification reactions with a starting input of 10^6 DHBV genomes from each sample. PCR amplicons were generated using primers pairs DCD03/DCD05 (127 bp), DCD03/DCD06 (327 bp) and DCD03/DCD07 (1072 bp). PCR was performed in a standard PCR buffer containing 0.2 mM each deoxyribonucleoside 5'-triphosphates (dATP, dGTP, dCTP, and dTTP), […] each primer, and 0.5 units Taq polymerase per […]. 30 cycles of amplification were performed with the following thermal profile: 95°C 30 sec, 60° C 30 sec, 72° C 1 min. The amplification was followed by a 7 min incubation at 72° C to yield full length products. [[…]-^32P] dCTP was added at an amount of […] per […] in order to detect and quantify the resulting products. Products were separated by electrophoresis on denaturing polyacrylamide slab gels and counted. The absence of signal in a given reaction was taken to indicate effective inactivation of DHBV.

[2] = system: H9 cells chronically infected with HIVIIIB; assay: Inactivation of cell-associated HIV in platelet concentrate, HIV microplaque assay; format: cell-based; settings: 150 µM in platelet concentrate; for logs of HIV inactivated (cell-associated): 3 Joules/cm^2, starting log titer 6.1 (Compound 2) or 6.6 (Compound 18); for log inactivation of HIV, dark control: no UVA
Experimental: H9 cells chronically infected with HIVIIIB were used. (H9/HTLV-III-B NIH 1983 Cat.#400). Cultures of these cells were maintained in high glucose Dulbecco Modified Eagle Medium supplemented with 2 mM L-glutamine, 200 u/mL penicillin, 200 µg/ml streptomycin, and 9% fetal bovine serum (Intergen Company, Purchase, N.Y.) For maintenance, the culture was split once a week, to a density of 3 x 10^5 to 4 x 10^5 cells/ml and about four days after splitting, 3.3% sodium bicarbonate was added as needed. For the inactivation procedure, the cells were used three days after they were split. They were pelleted from their culture medium at 400 g x 10 minutes, the supernatant was discarded, and the cells were resuspended in one to five day old human platelet concentrate (PC) (pH 7.5-6.5), to a concentration of 2 x 10^6 cells/ml. Aliquots of the PC-infected cell suspension were made for psoralen free dark controls, for psoralen free UVA only controls, for psoralen dark controls, and for the psoralen plus UVA experimental sample. Concentrated filter-sterilized stock solutions of each psoralen in water were diluted into the appropriate aliquots to yield a final concentration of 150 µM. […] After an equilibration period of thirty minutes at room temperature, 0.5 ml of each of the dark controls was placed in a cryovial and stored in the dark at -80° C. For UVA illumination, 8 ml of the psoralen free aliquot and 8 ml of each psoralen containing aliquot were introduced into a modified F1 20 Teflon™ bag (modified to be 92 cm^2 total surface area. The West Co., Phoenixvill, PA) via a plastic disposable 10 ml syringe attached to one of the polypropylne ports on the bag. This gave an average path length of 0.17 cm. The bags were then illuminated for a total exposure of 3 Joules/cm^2 in the device described in Example 1, above, attached to a circulating refrigerating water bath set at 4° C. which maintains the temperature in the bag at approximately 22-25° C. During exposure, the device was shaken on a platelet shaker (Helmer Labs, Noblesville, IN). After exposure, the contents of the bags were withdrawn by a fresh syringe through the remaining unused port on the bag, and placed in cryovials for storage in the dark at […] until analysis.
Clot removal from each sample was performed before plating.

platelets [3] = assay: Platelet aggregation (ADP and collagen, aggregometer); format: cell-based, human; settings: for (%) Aggregation: T = test unit (150 µM S-59, 3 Joules/cm^2 UVA, RD 8 hours on day 1)
Experimental: To measure the effects of the present compounds and methods of decontamination on platelet function using these four indicators, four samples were prepared for each compound tested, two control samples and two containing compound. […] These were each transferred under sterile conditions to 50 ml centrifuge tubes, then aliquots of each unit were transferred into a second set of 50 ml sterile centrifuge tubes. […] The samples were pipetted gently up and down to mix. […] Samples were treated in one of two different sized bags, having either 3 ml or 8 ml capacity. […] For each compound tested, two control samples without compound were prepared by again removing aliquots of platelet concentrate (17 ml if using an 8 ml bag, 4 ml if using a 3 ml bag) from the same one of the first set of 50 ml centrifuge tubes from which the compound sample was drawn, and dividing into Medibags, as before. […] Then all experimental and control Medibags were placed on a platelet shaker for storage for 5 days.

platelets [4] = assay: Platelet shape change; format: cell-based, human; settings: T = test unit (150 µM S-59, 3 Joules/cm^2 UVA, RD 8 hours on day 1)
Experimental: Platelets are able to regain their ability to change shape following transfer from the RD and incubation in a PL 2410 Plastic container (Baxter) in an equal volume of autologous plasma.
For the evaluation of in vitro platelet function, platelet samples were withdrawn from both the control and test units before treatment and after treatment on days 2, 5, and 7. The following parameters were analyzed: pH, pO2, pCO2, bicarbonate concentration, platelet count, morphology, aggregation, platelet shape change, hypotonic shock response, lactate production, glucose consumption, ATP secretion, p-selectin expression, and microvesicle formation. Several of these assays, including pH, morphology score, platelet shape change, and hypotonic shock response, have been reported in the literature to correlate with in- vivo post-transfusion recovery and survival. The Student's paired t-test was used for statistical analysis.

With `Cc1oc2c(C)c3oc(=O)cc(C)c3cc2c1CN` [AMT, 4'-Aminomethyl-4,5',8-trimethylpsoralen, reference compound] the “PCR amplification of the 1072 bp amplicon of DHBV” value [1] was “a signal could be detected” and the “PCR amplification of the 1072 bp amplicon of DHBV” value ([1]; 70 and 100 mM in PC) was “inhibited PCR amplification”.

`Cc1oc2c(C)c3oc(=O)cc(C)c3cc2c1COCCN` [Compound 2, 4'-(4-amino-2-oxa)butyl-4,5',8-trimethylpsoralen] was tested, and the “logs of HIV inactivated (cell-associated)” value [2] was greater than 6.7 logs, the “log inactivation of HIV, dark control” value [2] was 0 logs and the “reduction in aggregation from the day 1 control” value (platelets [3]; 100 µM compound, 5 Joules/cm^2, 5 days storage (FIG. 21B)) was “approximately 8%”. For the same compound, the “(%) Aggregation” value (platelets [3]; Day 2) was 88±4%, the “(%) Aggregation” value (platelets [3]; Day 5) was 81±7% and the “(%) Aggregation” value (platelets [3]; Day 7) was 81±4%. The “PCR of the 1072 bp amplicon of DHBV” value ([1]; all concentrations (35, 70, and 100 mM) in PC) was “complete inhibition of PCR”, the “inhibition of PCR of the smaller amplicons (127 bp, 327 bp) of DHBV” value ([1]; same concentrations as AMT) was “better than did AMT” and the “Platelet Shape Change” value (platelets [4]; Day 2) was 1.0±0.1. The “Platelet Shape Change” value (platelets [4]; Day 5) was 0.9±0.1 and the “Platelet Shape Change” value (platelets [4]; Day 7) was 0.9±0.3.

With `Cc1cc(=O)oc2c(C)c3oc(COCCN)c(C)c3cc12` [Compound 18, 5'-(4-amino-2-oxa)butyl-4,4',8-trimethylpsoralen] the “logs of HIV inactivated (cell-associated)” value [2] was greater than 7.2 logs and the “log inactivation of HIV, dark control” value [2] was 0 logs.
